Source: patent publication US7678787B2, “Pyrrolobenzodiazepine pyridine carboxamides and derivatives as follicle-stimulating hormone receptor antagonists” (Wyeth, priority 2005, dated 2010)

Legend:
human FSH receptor [1] = biological target: T1, human FSH receptor (Homo sapiens, UniProt P23945); test: FSH receptor-dependent CRE-luciferase reporter gene assay (CHO FSH-R 6CRE-Luc cells); type: cell-based; conditions: dose-response format in presence of EC50 of purified human FSH; * n=3, ** n=2 averages
T1 construct: host or cells: CHO-K1 (CHO FSH-R 6CRE-Luc, 1D7 cells)
T1 sequence (P23945 18-695): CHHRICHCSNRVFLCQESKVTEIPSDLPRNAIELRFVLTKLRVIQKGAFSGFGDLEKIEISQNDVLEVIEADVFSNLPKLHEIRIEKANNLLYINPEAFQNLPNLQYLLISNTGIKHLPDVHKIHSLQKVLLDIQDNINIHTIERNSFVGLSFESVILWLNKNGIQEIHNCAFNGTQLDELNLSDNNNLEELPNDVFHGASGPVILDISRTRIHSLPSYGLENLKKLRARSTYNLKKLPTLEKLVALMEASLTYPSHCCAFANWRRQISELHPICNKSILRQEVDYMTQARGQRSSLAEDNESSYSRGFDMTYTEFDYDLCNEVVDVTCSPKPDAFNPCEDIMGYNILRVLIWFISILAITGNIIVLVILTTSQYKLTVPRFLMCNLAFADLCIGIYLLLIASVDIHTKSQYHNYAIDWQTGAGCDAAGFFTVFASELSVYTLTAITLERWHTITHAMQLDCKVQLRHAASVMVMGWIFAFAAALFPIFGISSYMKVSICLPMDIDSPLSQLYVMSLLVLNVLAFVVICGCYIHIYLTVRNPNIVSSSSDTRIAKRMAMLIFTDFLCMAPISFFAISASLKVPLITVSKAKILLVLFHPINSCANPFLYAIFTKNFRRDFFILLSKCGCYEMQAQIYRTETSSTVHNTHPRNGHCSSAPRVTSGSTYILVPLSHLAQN
Procedure, shortened: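 CHO-K1 cells stably expressing the recombinant human FSH receptor and a luciferase reporter controlled by 6 cAMP response elements were seeded at 50,000 cells/100 μl/well in 96-well white opaque plates. Antagonists were tested in dose-response against the EC50 of purified human FSH for 4 hours at 37° C, and luciferase chemiluminescence was read with a LucScreen kit.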

hFSH-R = biological target: T2, hFSH-R (Homo sapiens, UniProt P23945); test: cAMP accumulation (RIA) in CHO-3D2 cells (hFSH-R), hFSH-induced; type: cell-based; conditions: inhibition of cAMP accumulation induced by hFSH at EC20, CHO-3D2 cells
T2 construct: expressed in transfected cells; host or cells: CHO-3D2 cells (CHO-K1 parental line)
T2 sequence (P23945 18-695): T1 sequence (P23945 18-695)
Method: IN VITRO BIO-ASSAY OF AGONISTS AND ANTAGONISTS TO THE FSH RECEPTOR. SELECTIVITY AND DEPENDENCY OF AGONISTS AND ANTAGONISTS TO THE FSH RECEPTOR
Compound Vehicle: Stock compounds were solubilized in 100% DMSO (Sigma-Aldrich Chemical Co., St. Louis, Mo.) at a concentration of 30 mM. The compounds subsequently were diluted in sterile assay medium consisting of Opti-MEM® I (Invitrogen/Life Technologies, Carlsbad, Calif.) with 0.1% (w/v) BSA (Sigma-Aldrich) prior to use in the bio-assay. The final concentration of DMSO in the assay was 0.1%.
Plated cells are then incubated at 37° C. in a humidified 5% CO2/95% air atmosphere.
Assay: On the day of the assay, cells were washed three times with 100 μl/well of assay medium consisting of Opti-MEM® I (Invitrogen/Life Technologies) with 0.1% (w/v) BSA (Sigma-Aldrich). Medium was removed and 100 μl of assay medium was added to each well. Plates were incubated for an additional 30 minutes at 37° C. […] Reactions were terminated by the addition of 50 μl of 0.2N hydrochloric acid to each well and cAMP-accumulation was measured by radioimmunoassay (RIA) using a commercially available kit (Amersham Biosciences, Piscataway, N.J.).
All test compounds were evaluated in a dose-response paradigm ranging from 0.01 to 30 μM. Controls and test compounds were evaluated in quadruplicate in a 96-well format.
Along with the test compounds, FSH was run also as a postive control in the agonist mode using concentrations ranging from 0.1-1000 ng/ml.
Data were analyzed by one-way analysis of variance and significant differences between treatments and control determined by Least Significant Difference test.
Test compounds were compared to the effect of purified human FSH.

human FSH receptor [2] = biological target: T1, human FSH receptor; test: FSH receptor-dependent CRE-luciferase reporter gene assay (CHO FSH-R 6CRE-Luc cells); type: cell-based; conditions: 2-dose format; test concentration in parentheses = 30 μM; percent inhibition of response to EC50 of FSH; read-out: CRE % inhibition

## COc1ccccc1-c1ccc(C(=O)N2Cc3ccc(C(=O)NCc4cccnc4)n3Cc3ccccc32)cc1 [Example 8]
Human FSH receptor [1]
  IC50: 540 nM
hFSH-R
  IC50: 500 nM
other
  melting point: 123 to 127 °C

## Cc1cc(C(=O)N2Cc3ccc(C(=O)NCc4cccnc4)n3Cc3ccccc32)ccc1-c1c(C)cccc1C [Example 10]
Human FSH receptor [2]
  inhibition at 30 µM: 25%

## CS(=O)(=O)c1ccccc1-c1ccc(C(=O)N2Cc3ccc(C(=O)NCc4cccnc4)n3Cc3ccccc32)cc1 [Example 15]
Human FSH receptor [1]
  IC50: 1100 nM
hFSH-R
  IC50: 370 nM
other
  melting point: 153 to 156 °C

## N#CCc1ccccc1-c1ccc(C(=O)N2Cc3ccc(C(=O)NCc4cccnc4)n3Cc3ccccc32)cc1 [Example 17]
Human FSH receptor [1]
  IC50: 290 nM
hFSH-R
  IC50: 130 nM
other
  melting point: 105 to 108 °C

## NC(Cc1ccccc1-c1ccc(C(=O)N2Cc3ccc(C(=O)NCc4cccnc4)n3Cc3ccccc32)cc1)=NO [Example 18]
Human FSH receptor [1]
  IC50: 41 nM
hFSH-R
  IC50: 70 nM
other
  melting point: 131 to 134 °C

## Cc1cc(C(=O)N2Cc3ccc(C(=O)NCc4cccnc4)n3Cc3ccccc32)ccc1-c1cccc(Cl)c1 [Example 23]
Human FSH receptor [2]
  inhibition at 30 µM: 36%

## Cc1ccccc1-c1ccc(C(=O)N2Cc3ccc(C(=O)NCc4cccnc4)n3Cc3ccccc32)cc1 [Example 28]
Human FSH receptor [1]
  IC50: 2000 nM
hFSH-R
  IC50: 800 nM
other
  melting point: 176 to 177 °C

## CC(=O)c1ccccc1-c1ccc(C(=O)N2Cc3ccc(C(=O)NCc4cccnc4)n3Cc3ccccc32)cc1C [Example 29]
Human FSH receptor [1]
  IC50: 900 nM
hFSH-R
  IC50: 400 nM
other
  melting point: 171 to 172 °C

## CNCc1ccccc1-c1ccc(C(=O)N2Cc3ccc(C(=O)NCc4cccnc4)n3Cc3ccccc32)cc1 [Example 42]
Human FSH receptor [1]
  IC50: 7090 nM
hFSH-R
  IC50: 2000 nM
other
  melting point: 149 to 150 °C

## O=C(NCc1cccnc1)c1ccc2n1Cc1ccccc1N(C(=O)c1ccc(-c3ccccc3CN3CCOCC3)cc1)C2 [Example 43]
Human FSH receptor [1]
  IC50: 257 nM
hFSH-R
  IC50: 140 nM
other
  melting point: 191 to 194 °C

## O=C(NCc1cccnc1)c1ccc2n1Cc1ccccc1N(C(=O)c1ccc(-c3ccccc3CN3CCCCC3)cc1)C2 [Example 44]
Human FSH receptor [1]
  IC50: 2940 nM
hFSH-R
  IC50: 1710 nM
other
  melting point: 199 to 202 °C

## CN(C)Cc1ccccc1-c1ccc(C(=O)N2Cc3ccc(C(=O)NCc4cccnc4)n3Cc3ccccc32)cc1 [Example 45]
Human FSH receptor [1]
  IC50: 3580 nM
hFSH-R
  IC50: 780 nM
other
  melting point: 95 to 104 °C

## NCc1ccccc1-c1ccc(C(=O)N2Cc3ccc(C(=O)NCc4cccnc4)n3Cc3ccccc32)cc1 [Example 46]
Human FSH receptor [1]
  IC50: 2190 nM
hFSH-R
  IC50: 370 nM
other
  melting point: 115 to 120 °C

## COc1ccccc1-c1ccc(C(=O)N2Cc3ccc(C(=O)NCc4cccnc4)n3Cc3ccccc32)cc1C [Example 47]
Human FSH receptor [1]
  IC50: 650 nM
hFSH-R
  IC50: 200 nM
other
  melting point: 119 to 124 °C

## CCOc1ccccc1-c1ccc(C(=O)N2Cc3ccc(C(=O)NCc4cccnc4)n3Cc3ccccc32)cc1C [Example 48]
Human FSH receptor [1]
  IC50: 1600 nM
hFSH-R
  IC50: 300 nM
other
  melting point: 139 to 143 °C

## COCc1ccccc1-c1ccc(C(=O)N2Cc3ccc(C(=O)NCc4cccnc4)n3Cc3ccccc32)cc1C [Example 49]
Human FSH receptor [1]
  IC50: 600 nM
hFSH-R
  IC50: 100 nM
other
  melting point: 163 to 164 °C

## CC(=O)c1ccccc1-c1ccc(C(=O)N2Cc3ccc(C(=O)NCc4cccnc4)n3Cc3ccccc32)cc1 [Example 51]
Human FSH receptor [1]
  IC50: 290 nM
hFSH-R
  IC50: 100 nM
other
  melting point: 149 to 150 °C

## CC(O)c1ccccc1-c1ccc(C(=O)N2Cc3ccc(C(=O)NCc4ccc[n+]([O-])c4)n3Cc3ccccc32)cc1 (centres unmarked) [Example 55, 10-{[2′-(1-HYDROXYETHYL)-1,1′-BIPHENYL-4-YL]CARBONYL}-N-[(1-OXIDOPYRIDIN-3-YL)METHYL]-10,11-DIHYDRO-5H-PYRROLO[2,1-C][1,4]BENZODIAZEPINE-3-CARBOXAMIDE]
Human FSH receptor [1]
  IC50: 1050 nM
hFSH-R
  IC50: 620 nM
other
  melting point: 213 to 215 °C

## O=Cc1ccccc1-c1ccc(C(=O)N2Cc3ccc(C(=O)NCc4cccnc4)n3Cc3ccccc32)cc1 [Example 56]
Human FSH receptor [1]
  IC50: 1040 nM
hFSH-R
  IC50: 900 nM
other
  melting point: 162 to 163 °C

## Cc1cc(C(=O)N2Cc3ccc(C(=O)NCc4cccnc4)n3Cc3ccccc32)ccc1-c1ccccc1 [Example 57]
Human FSH receptor [1]
  IC50: 2120 nM
hFSH-R
  IC50: 700 nM
other
  melting point: 108 to 112 °C

## CCC(O)c1ccccc1-c1ccc(C(=O)N2Cc3ccc(C(=O)NCc4cccnc4)n3Cc3ccccc32)cc1 (centres unmarked) [Example 58]
Human FSH receptor [1]
  IC50: 400 nM
hFSH-R
  IC50: 200 nM
other
  melting point: 111 to 115 °C

## O=C(NCc1cccnc1)c1ccc2n1Cc1ccccc1N(C(=O)c1ccc(-c3ccccc3CO)cc1)C2 [Example 59]
Human FSH receptor [1]
  IC50: 100 nM
hFSH-R
  IC50: 60 nM
other
  melting point: 119 to 121 °C

## COCc1ccccc1-c1ccc(C(=O)N2Cc3ccc(C(=O)NCc4cccnc4)n3Cc3ccccc32)cc1 [Example 61]
Human FSH receptor [1]
  IC50: 100 nM
hFSH-R
  IC50: 50 nM
other
  melting point: 156 to 157 °C

## O=C(NCc1cccnc1)c1ccc2n1Cc1ccccc1N(C(=O)c1ccc(-c3ccccc3/C=N/O)cc1)C2 [Example 62]
Human FSH receptor [1]
  IC50: 1060 nM
hFSH-R
  IC50: 550 nM
other
  melting point: 165 to 167 °C

## COC(=O)c1ccccc1-c1ccc(C(=O)N2Cc3ccc(C(=O)NCc4cccnc4)n3Cc3ccccc32)cc1 [Example 63]
Human FSH receptor [1]
  IC50: 1180 nM
hFSH-R
  IC50: 380 nM
other
  melting point: 179.5 to 180.5 °C

## COc1cccc(-c2ccc(C(=O)N3Cc4ccc(C(=O)NCc5cccnc5)n4Cc4ccccc43)cc2C)c1 [Example 70]
Human FSH receptor [1]
  IC50: 5600 nM
hFSH-R
  IC50: 2400 nM
other
  melting point: 176 to 177 °C

## Cc1cc(C(=O)N2Cc3ccc(C(=O)NCc4cccnc4)n3Cc3ccccc32)ccc1I [Example 74]
Human FSH receptor [1]
  IC50: 10500 nM
hFSH-R
  IC50: 3100 nM
other
  melting point: 176 to 177 °C

## O=C(c1ccccc1)c1ccc(C(=O)N2Cc3ccc(C(=O)NCc4cccnc4)n3Cc3ccccc32)cc1 [Example 75]
Human FSH receptor [1]
  IC50: > 30000 nM
hFSH-R
  IC50: 21000 nM
other
  melting point: 211 to 213 °C (dec.)

## O=C(NCc1cccnc1)c1ccc2n1Cc1ccccc1N(C(=O)c1ccc(-c3ncccn3)cc1)C2 [Example 105]
Human FSH receptor [1]
  IC50: 2480 nM
hFSH-R
  IC50: 200 nM
other
  melting point: 234 to 236 °C

## O=C(NCc1cccnc1)c1ccc2n1Cc1ccccc1N(C(=O)c1ccc(-c3ccccn3)cc1)C2 [Example 107]
Human FSH receptor [1]
  IC50: 3120 nM
hFSH-R
  IC50: 200 nM
other
  melting point: 159 to 161 °C

## O=C(NCc1cccnc1)c1ccc2n1Cc1ccccc1N(C(=O)c1ccc(-c3cccnc3)cc1)C2 [Example 108]
Human FSH receptor [1]
  IC50: 9530 nM
hFSH-R
  IC50: 1800 nM
other
  melting point: 120 to 125 °C

## Cc1cccnc1-c1ccc(C(=O)N2Cc3ccc(C(=O)NCc4cccnc4)n3Cc3ccccc32)cc1 [Example 109]
Human FSH receptor [1]
  IC50: 2920 nM
hFSH-R
  IC50: 300 nM
other
  melting point: 150 to 151 °C

## O=C(NCc1cccnc1)c1ccc2n1Cc1ccccc1N(C(=O)c1ccc(-n3cccn3)cc1)C2 [Example 112]
Human FSH receptor [1]
  IC50: 7990 nM
hFSH-R
  IC50: 1300 nM
other
  melting point: 107 °C

## O=C(NCc1cccnc1)c1ccc2n1Cc1ccccc1N(C(=O)c1ccc(N3CCCCC3)cc1)C2 [Example 113]
Human FSH receptor [1]
  IC50: 8840 nM
hFSH-R
  IC50: 800 nM
other
  melting point: 196 to 197 °C (dec.)
